Read-outs that look alike come from different tables or passages of the source.
Assays:
physchem = format: physicochemical; conditions: for remaining at 192 h: solid
Method: The storage stability of the present compounds [I] was tested by allowing each test compound to stand under severe conditions (i.e., a temperature of 60° C. and a relative humidity of 75%) for 8 days and then determining its percentage of residue according to a thin-layer densitometric method (Bunseki Kagaku, Vol. 23, No. 9, p. 1016, 1974). More specifically, upon completion of the severe treatment, 100 μg of each test compound was applied to a thin-layer plate and this plate was developed with a chloroform-ethanol mixture (volume ratio 10:1). The thin-layer plate used for this purpose was a TLC Plate Aluminum Oxide 60F254 (manufactured by Merck Co.; 0.25 mm in thickness and 20 cm×20 cm in size), and it was developed over a distance of 15 cm. Then, using a Shimazu Two-wavelength Chromatoscanner CS-910 (manufactured by Shimazu Seisakusho), the resulting spot was analyzed at a wavelength of 300-315 nm.
For purposes of comparison, the percentages of residue of Omeprazole (at a measuring wavelength of 300 nm) and Compounds α and β (at a measuring wavelength of 310 nm) were determined in the same manner as described above and are also shown in Table 1.

gastric acid secretion = experiment: Inhibitory effect on gastric acid secretion (pylorus ligation); format: in vivo, male Wistar rats; conditions: for ED50: Rattus norvegicus, po, rats, total acidity of gastric juice 4 hours after pylorus ligation; for inhibitory effect on gastric acid secretion (in words): in vivo
Method: The inhibitory effect of the present compounds [I] on gastric acid secretion was tested by using male Wistar rats, weighing about 200 g, in groups of five. To these rats which had been fasted overnight, the test compounds were orally administered in a series of appropriately selected doses ranging from 1 to 100 mg/kg. Then, the pyloric end of the stomach was ligated. After the lapse of 4 hours, the total acidity of gastric juice of each rat was measured. More specifically, the test compounds were suspended in a 0.5% aqueous solution of carboxymethyl cellulose and administered to the rats 30 minutes before ligation. Gastric juice was collected by sacrificing and laparotomizing each rat. The total acidity of gastric juice was determined by titrating the gastric juice with a 0.1 N aqueous solution of sodium hydroxide until a pH of 7.0 was reached. As a control experiment, the total acidity of gastric juice of an untreated group was determined in the same manner as described above. The inhibitory effect of the test compounds on gastric acid secretion was evaluated on the basis of the dose (in mg/kg) required to inhibit gastric acid secretion, i.e. the total acidity of gastric juice, by 50% (hereinafter referred to as ED50). The ED50 value of each test compound was determined by calculating the difference in total acidity between the untreated group and each treated group, dividing the difference by the total acidity of the untreated group to obtain the degree of inhibition, and constructing a dose-response curve on the basis of the data thus obtained. For purposes of comparison, the ED50 values of Omeprazole and Compounds α and β were determined in the same manner as described above and are also shown in Table 3.

[1] = tested on: various experimental ulcers; experiment: Inhibitory effects on various experimental ulcers (overall statement); set-up: species or system male Wistar rats; conditions: in vivo
Method: The inhibitory effects of the present compounds [I] on various experimental ulcers were tested by using male Wistar rats, weighing about 200 g, in groups of six and determining the respective ulceration indexes for 5 types of experimental ulcers. In each test, the test compounds were suspended in a 0.5% aqueous solution of carboxymethyl cellulose and administered orally in a series of appropriately selected doses ranging from 1 to 100 mg/kg. The test procedures for 5 types of experimental ulcers were as follows:
The pharmacological effect of the test compounds on each of the aforesaid experimental ulcers was evaluated on the basis of the dose (in mg/kg) required to inhibit the formation of ulcers by 50% (hereinafter referred to as ID50). The ID50 value of each test compound was determined by calculating the difference in ulceration index between the untreated group and each treated group, dividing the difference by the ulceration index of the untreated group to obtain the degree of inhibition, and constructing a dose-response curve on the basis of the data thus obtained. For purposes of comparison, the ID50 values of Omeprazole and Compounds α and β were determined in the same manner as described above and are also shown in Table 4.

Row | SMILES | storage stability (in words) (physchem) | remaining at 192 h (physchem; after treatment at 60° C. and 75% RH for 8 days, read-out: Storage stability, Percentage of residue) | ED50 (gastric acid secretion) | remaining at 192 h (physchem; 75% rh) | inhibitory effects on various experimental ulcers (in words) [1] | inhibitory effect on gastric acid secretion (in words) (gastric acid secretion)
1 | COc1ccc2[nH]c([S+]([O-])Cc3ncc(C)c(OC)c3C)nc2c1 (stereo not shown) [Omeprazole, reference compound] | undergoes a higher degree of deterioration than might be expected | 3% | 35 mg/kg | – | – | –
2 | CCCCCCCOc1ccc2[nH]c([S+]([O-])Cc3ncc(C)cc3C)nc2n1 (stereo not shown) [Example 33, 2-[2-(3,5-Dimethyl)pyridylmethylsulfinyl]-5-n-heptyloxyimidazo[4,5-b]pyridine] | – | – | 17 mg/kg | 89% | – | –
3 | COc1c(C)cnc(C[S+]([O-])c2nc3nc(OCC4CC4)ccc3[nH]2)c1C (stereo not shown) [Example 24, 2-[2-(3,5-Dimethyl-4-methoxy)pyridylmethylsulfinyl]-5-cyclopropylmethyloxyimidazo[4,5-b]pyridine] | – | – | 9 mg/kg | 94% | – | –
4 | CCOc1ccc2[nH]c([S+]([O-])Cc3ncc(C)c(C)c3C)nc2n1 (stereo not shown) [Example 8, 2-[2-(3,4,5-Trimethyl)pyridylmethylsulfinyl]-5-ethoxyimidazo[4,5-b]pyridine] | – | – | 12 mg/kg | 96% | – | –
5 | COc1c(C)cnc(C[S+]([O-])c2nc3ncc(Br)cc3[nH]2)c1C (stereo not drawn) [Compound α, 2-[2-(3,5-dimethyl-4-methoxy)pyridylmethylsulfinyl]-6-bromoimidazo[4,5-b]pyridine, reference compound] | defective in storage stability | – | 73 mg/kg | 0% | not satisfactorily reflected in the in vivo tests | not satisfactorily reflected in the in vivo tests
6 | COc1ccc2[nH]c([S+]([O-])Cc3ncc(C)cc3C)nc2n1 (stereo not shown) [Example 1, 2-[2-(3,5-Dimethyl)pyridylmethylsulfinyl]-5-methoxyimidazo[4,5-b]pyridine] | – | – | 13 mg/kg | 98% | – | –
7 | COc1c(C)cnc(C[S+]([O-])c2nc3nc(OCC(F)(F)F)ccc3[nH]2)c1C (stereo not shown) [Example 26, 2-[2-(3,5-Dimethyl-4-methoxy)pyridylmethylsulfinyl]-5-(2,2,2-trifluoroethoxy)imidazo[4,5-b]pyridine] | – | – | 15 mg/kg | 92% | – | –
8 | COc1cc(C[S+]([O-])c2nc3nc(OCC4CC4)ccc3[nH]2)ncc1C (stereo not shown) [Example 13, 2-[2-(4-Methoxy-5-methyl)pyridylmethylsulfinyl]-5-cyclopropylmethyloxyimidazo[4,5-b]pyridine] | – | – | 18 mg/kg | 88% | – | –
9 | COc1c(C)cnc(C[S+]([O-])c2nc3ncc(C)cc3[nH]2)c1C (stereo not drawn) [Compound β, 2-[2-(3,5-dimethyl-4-methoxy)pyridylmethylsulfinyl]-6-methylimidazo[4,5-b]-pyridine, reference compound] | defective in storage stability | – | 41 mg/kg | 9% | not satisfactorily reflected in the in vivo tests | not satisfactorily reflected in the in vivo tests

— US4808596A, “Imidazo[4,5-b]pyridine compounds and pharmaceutical compositions containing same” (Tokyo Tanabe Company, Ltd., priority 1986, dated 1989)
